Assay results taken from PubChem BioAssay AID588373 (NMMLSC, 2011).
pEC50: −log10 of the molar value.

biological target: Cell division control protein 42 homolog (Homo sapiens) (UniProt P60953); assay: Cdc42 activated mutant GTP-binding inhibitors, SAR follow-up, biochemical, probe extension, bead-based multiplex flow cytometry, round 1 (AID 588373); details: Bodipy-FL-GTP binding, EDTA
Sequence (P60953 whole entry, looked up): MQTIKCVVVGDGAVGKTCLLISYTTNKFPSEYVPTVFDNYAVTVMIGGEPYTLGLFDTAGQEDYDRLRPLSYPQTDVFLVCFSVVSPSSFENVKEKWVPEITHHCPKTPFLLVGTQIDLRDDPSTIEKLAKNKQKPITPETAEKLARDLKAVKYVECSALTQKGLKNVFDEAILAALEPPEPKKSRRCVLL

pEC50, active:
COc1ccc(C2CC(c3ccccc3)=NN2c2ccc(S(N)(=O)=O)cc2)cc1 (stereo not drawn) 5.72, O=C(C#Cc1ccccc1)c1cccc([N+](=O)[O-])c1 6.43, NS(=O)(=O)c1ccc(N2N=C(c3ccccc3)CC2c2ccccc2)cc1 (stereo not drawn) 5.21
